Assays:
giant foxtail = assay: Test B pre/postemergence giant foxtail; format: in vivo, Setaria faberii
Procedure, shortened: (§1)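 Herbicidal effect was estimated by eye on a ten-point control scale after plants spent twelve to sixteen days in a greenhouse following soil or foliar treatment. Foliar sprays targeted plants at one to four leaves; all doses were formulated in a non-phytotoxic solvent with surfactant.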

smallflower flatsedge = assay: Test B flood test smallflower flatsedge; format: in vivo, Cyperus difformis
Procedure, shortened: (§2)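 Flood test on plants grown to the 2-leaf stage; treated plants kept in greenhouse twelve to sixteen days, then visually rated against controls on a 0 (no effect) to 10 (complete control) scale.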

velvetleaf = assay: Test B pre/postemergence velvetleaf; format: in vivo, Abutilon theophrasti
Procedure, shortened: as §1

surinam grass = assay: Test B pre/postemergence surinam grass; format: in vivo, Brachiaria decumbens
Procedure, shortened: as §1

soybean = assay: Test B pre/postemergence soybean; format: in vivo, Glycine max
Procedure, shortened: as §1

wheat = assay: Test B pre/postemergence wheat; format: in vivo, Triticum aestivum
Procedure, shortened: as §1

bamyardgrass = assay: Test B flood test barnyardgrass; format: in vivo, Echinochloa crus-galli
Procedure, shortened: as §2

wild oat = assay: Test B pre/postemergence wild oat; format: in vivo, Avena fatua
Procedure, shortened: as §1

rape = assay: Test B pre/postemergence rape; format: in vivo, Brassica napus
Procedure, shortened: as §1

cocklebur = assay: Test B pre/postemergence cocklebur; format: in vivo, Xanthium strumarium
Procedure, shortened: as §1

morningglory = assay: Test B pre/postemergence morningglory; format: in vivo, Ipomoea hederacea
Procedure, shortened: as §1

corn = assay: Test B pre/postemergence corn; format: in vivo, Zea mays
Procedure, shortened: as §1

duck salad = assay: Test B flood test duck salad; format: in vivo, Heteranthera limosa
Procedure, shortened: as §2

crabgrass = assay: Test B pre/postemergence crabgrass; format: in vivo, Digitaria sanguinalis
Procedure, shortened: as §1

blackgrass = assay: Test B pre/postemergence blackgrass; format: in vivo, Alopecurus myosuroides
Procedure, shortened: as §1

bedstraw = assay: Test B pre/postemergence bedstraw; format: in vivo, Galium aparine; details: scale of 0 to 10 where 0 is no effect and 10 is complete control
Procedure, shortened: as §1

[1] = Postemergence, Rate 125 g/ha, scale 0 to 10, 0 is no effect, 10 is complete control
[2] = Postemergence, Rate 250 g/ha, scale 0 to 10, 0 is no effect, 10 is complete control
[3] = Postemergence, Rate 500 g/ha, scale of 0 to 10 where 0 is no effect and 10 is complete control
[4] = Preemergence, Rate 62 g/ha, scale 0 to 10 (0 no effect, 10 complete control)
[5] = Preemergence, Rate 125 g/ha, scale of 0 to 10 where 0 is no effect and 10 is complete control
[6] = Preemergence, Rate 250 g/ha, scale of 0 to 10 where 0 is no effect and 10 is complete control
[7] = Preemergence, Rate 500 g/ha, scale of 0 to 10 where 0 is no effect and 10 is complete control
[8] = Rate 62 g/ha, Postemergence, scale of 0 to 10 where 0 is no effect and 10 is complete control
[9] = Rate 62 g/ha, flood test species, Pre-emergence, visual evaluation after twelve to sixteen days
[10] = Rate 125 g/ha, under heading Pre-emergence, flood test species, visual evaluation after twelve to sixteen days
[11] = Rate 250 g/ha, Pre-emergence, flood-test species, scale 0 to 10, 0 is no effect, 10 is complete control
[12] = Rate 500 g/ha, Pre-emergence, flood test species, scale 0 to 10 (0 no effect, 10 complete control)

## CC(C)N(C(=O)n1oc(=O)n(C(CF)CF)c1=O)c1ccc(F)cc1 [Compound 390]
Giant foxtail; [1]
  Plant response rating, Giant foxtail: 9
Giant foxtail; [2]
  Plant response rating, Giant foxtail: 9
Giant foxtail; [3]
  Giant foxtail plant response rating: 10
Giant foxtail; [4]
  Plant response rating, Giant foxtail: 10
Giant foxtail; [5]
  Plant response rating, Giant foxtail: 10
Giant foxtail; [6]
  Giant foxtail plant response rating: 10
Giant foxtail; [7]
  Giant foxtail plant response rating: 10
Giant foxtail; [8]
  Giant foxtail plant response rating: 9
Smallflower flatsedge; [9]
  Plant response rating, S. Flatsedge (0 to 10 scale, 0 is no effect, 10 is complete control): 0
Smallflower flatsedge; [10]
  S. Flatsedge plant response rating (0 to 10 scale, 0 is no effect, 10 is complete control): 0
Smallflower flatsedge; [11]
  S. Flatsedge plant response rating: 0
Smallflower flatsedge; [12]
  S. Flatsedge plant response rating: 7
velvetleaf; [2]
  Plant response rating, Velvetleaf: 7
velvetleaf; [3]
  Velvetleaf plant response rating: 8
velvetleaf; [4]
  Plant response rating, Velvetleaf: 2
velvetleaf; [5]
  Plant response rating, Velvetleaf: 4
velvetleaf; [6]
  Velvetleaf plant response rating: 6
velvetleaf; [7]
  Velvetleaf plant response rating: 7
velvetleaf; [8]
  Velvetleaf plant response rating: 0
Surinam grass; [1]
  Plant response rating, B. signalgrass: 5
Surinam grass; [2]
  Plant response rating, B. signalgrass: 5
Surinam grass; [3]
  B. signalgrass plant response rating: 8
Surinam grass; [4]
  Plant response rating, B. signalgrass: 1
Surinam grass; [5]
  Plant response rating, B. signalgrass: 5
Surinam grass; [6]
  B. signalgrass plant response rating: 9
Surinam grass; [7]
  B. signalgrass plant response rating: 10
Surinam grass; [8]
  B. signalgrass plant response rating: 2
soybean; [2]
  Plant response rating, Soybean: 3
soybean; [3]
  Soybean plant response rating: 5
soybean; [4]
  Plant response rating, Soybean: 0
soybean; [5]
  Plant response rating, Soybean: 0
soybean; [6]
  Soybean plant response rating: 2
soybean; [7]
  Soybean plant response rating: 3
soybean; [8]
  Soybean plant response rating: 2
wheat; [2]
  Plant response rating, Wheat: 3
wheat; [3]
  Wheat plant response rating: 7
wheat; [4]
  Plant response rating, Wheat: 0
wheat; [5]
  Plant response rating, Wheat: 4
wheat; [6]
  Wheat plant response rating: 8
wheat; [7]
  Wheat plant response rating: 9
wheat; [8]
  Wheat plant response rating: 0
bamyardgrass; [9]
  Plant response rating, Barnyardgrass (0 to 10 scale, 0 is no effect, 10 is complete control): 2
bamyardgrass; [10]
  Barnyardgrass plant response rating (0 to 10 scale, 0 is no effect, 10 is complete control): 5
bamyardgrass; [11]
  Barnyardgrass plant response rating: 4
bamyardgrass; [12]
  Barnyardgrass plant response rating: 9
Wild oat; [2]
  Plant response rating, Wild oats: 7
Wild oat; [3]
  Wild oats plant response rating: 9
Wild oat; [4]
  Plant response rating, Wild oats: 3
Wild oat; [5]
  Plant response rating, Wild oats: 6
Wild oat; [6]
  Wild oats plant response rating: 10
Wild oat; [7]
  Wild oats plant response rating: 10
Wild oat; [8]
  Wild oats plant response rating: 0
rape; [2]
  Plant response rating, Rape: 10
rape; [3]
  Rape plant response rating: 10
rape; [4]
  Plant response rating, Rape: 0
rape; [5]
  Plant response rating, Rape: 2
rape; [6]
  Rape plant response rating: 8
rape; [7]
  Rape plant response rating: 8
rape; [8]
  Rape plant response rating: 7
cocklebur; [1]
  Plant response rating, Cocklebur: 0
cocklebur; [2]
  Plant response rating, Cocklebur: 3
cocklebur; [3]
  Cocklebur plant response rating: 7
cocklebur; [4]
  Plant response rating, Cocklebur: 0
cocklebur; [5]
  Plant response rating, Cocklebur: 0
cocklebur; [6]
  Cocklebur plant response rating: 2
cocklebur; [8]
  Cocklebur plant response rating: 0
morningglory; [2]
  Plant response rating, Morningglory: 7
morningglory; [3]
  Morningglory plant response rating: 9
morningglory; [4]
  Plant response rating, Morningglory: 0
morningglory; [5]
  Plant response rating, Morningglory: 3
morningglory; [6]
  Morningglory plant response rating: 6
morningglory; [7]
  Morningglory plant response rating: 7
morningglory; [8]
  Morningglory plant response rating: 2
corn; [1]
  Plant response rating, Corn: 0
corn; [2]
  Plant response rating, Corn: 0
corn; [3]
  Corn plant response rating: 0
corn; [4]
  Plant response rating, Corn: 0
corn; [5]
  Plant response rating, Corn: 3
corn; [7]
  Corn plant response rating: 7
corn; [8]
  Corn plant response rating: 0
Duck salad; [9]
  Plant response rating, Ducksalad (0 to 10 scale, 0 is no effect, 10 is complete control): 0
Duck salad; [10]
  Ducksalad plant response rating (0 to 10 scale, 0 is no effect, 10 is complete control): 0
Duck salad; [11]
  Ducksalad plant response rating: 0
Duck salad; [12]
  Ducksalad plant response rating: 3
crabgrass; [1]
  Plant response rating, Crabgrass: 7
crabgrass; [2]
  Plant response rating, Crabgrass: 7
crabgrass; [3]
  Crabgrass plant response rating: 9
crabgrass; [4]
  Plant response rating, Crabgrass: 8
crabgrass; [5]
  Plant response rating, Crabgrass: 9
crabgrass; [6]
  Crabgrass plant response rating: 10
crabgrass; [7]
  Crabgrass plant response rating: 10
crabgrass; [8]
  Crabgrass plant response rating: 2
blackgrass; [2]
  Plant response rating, Blackgrass: 9
blackgrass; [3]
  Blackgrass plant response rating: 9
blackgrass; [4]
  Plant response rating, Blackgrass: 6
blackgrass; [5]
  Plant response rating, Blackgrass: 9
blackgrass; [6]
  Blackgrass plant response rating: 9
blackgrass; [7]
  Blackgrass plant response rating: 10
blackgrass; [8]
  Blackgrass plant response rating: 8
bedstraw; Postemergence, Rate 500 g/ha
  Bedstraw plant response rating: 7
bedstraw; Preemergence, Rate 125 g/ha
  Plant response rating, Bedstraw: 0

From patent publication US6737383B1, “Herbicidal oxadiazolidines” (priority 1999, dated 2004)
